# Laboratory results: US12617773B2, “Azetidin-3-ylmethanol derivatives as CCR6 receptor modulators” (Idorsia Pharmaceuticals Ltd, priority 2020, dated 2026)
# Target: T1, human CCR6 (Homo sapiens, UniProt P51684)
# T1 construct: expressed in transfected cells; host or cells: HEK-293
# T1 sequence (P51684 1-374): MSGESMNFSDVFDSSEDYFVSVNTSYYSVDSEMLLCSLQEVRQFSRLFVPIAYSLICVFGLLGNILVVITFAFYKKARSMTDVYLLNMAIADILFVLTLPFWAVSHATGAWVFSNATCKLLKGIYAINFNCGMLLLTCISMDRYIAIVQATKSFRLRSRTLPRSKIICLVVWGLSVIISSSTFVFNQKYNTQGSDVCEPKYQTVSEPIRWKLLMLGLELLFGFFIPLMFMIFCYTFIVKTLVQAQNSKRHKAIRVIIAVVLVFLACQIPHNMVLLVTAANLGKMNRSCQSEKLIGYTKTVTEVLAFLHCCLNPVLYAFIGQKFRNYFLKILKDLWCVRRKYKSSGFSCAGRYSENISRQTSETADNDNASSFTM
# Test: FLIPR assay (inhibition of CCL20-induced calcium signal)
# Type: cell-based
# Details: HEK-293 cells expressing human CCR6; mean values where determined several times; read-out: FLIPR IC50
# Protocol: FLIPR assay: The bioactivity of compounds is tested in a fluorometric imaging plate reader (FLIPR: Molecular Devices) using engineered HEK-293 cells expressing the human CCR6 (GenBank: AY242126). Frozen cells are plated on Poly-L-Lysine precoated 384-well plates 2 days prior to bioassay in DMEM medium supplemented with 10% FCS and 1% Penicillin-Streptomycin. […] This buffer, but lacking the dye, is also used for washing and compound dilution steps (assay buffer). Cells are washed free of excess dye with a wash-station (Biotek), leaving 40 microliter of assay buffer at the end. Cells were incubated for 15 minutes at room temperature in the dark, before adding compounds. Stock solutions of test compounds are made up at a concentration of 10 mM in DMSO, and serially diluted first in DMSO and then transferred in assay buffer to concentrations required for inhibition dose response curves. After a 45-minute incubation period in assay buffer at room temperature, 10 microliters of each compound dilution are transferred from a compound plate to the plate containing the recombinant cells in the FLIPR instrument according to the manufacturer's instructions. After cells and compounds were preincubated for 30 minutes at room temperature in the dark, 10 microliter agonist CCL20 (Peprotech) at a final concentration of 10 nM is added, again using the FLIPR instrument. Changes in fluorescence are monitored before and after addition of the test compounds and agonist. Emission peak values above base level after CCL20 addition are exported after base line subtraction.
# The calculated IC50 values may fluctuate depending on the daily assay performance. Fluctuations of this kind are known to those skilled in the art.
row,SMILES,IC50 [nM]
1,CC(C)c1ccc([C@](O)(c2cncc(CCC3(O)CCOCC3)c2)C2(C)CN(C)C2)cc1 [Example 62],242
2,CC(C)c1ccc([C@](O)(c2cncc(CCC(O)C3CCOCC3)c2)C2(C)CN(C)C2)cc1 (stereo partly shown) [Example 63],601
3,Cc1nn(C)cc1C(O)CCc1cncc([C@@](O)(c2ccc(C(C)C)cc2)C2(C)CN(C)C2)c1 (stereo partly shown) [Example 64],441
4,Cc1nc(C(O)CCc2cncc([C@@](O)(c3ccc(C(C)C)cc3)C3(C)CN(C)C3)c2)cs1 (stereo partly shown) [Example 66],223
5,CC(C)c1ccc([C@](O)(c2cncc(CCC(C)(O)c3ccn(C)n3)c2)C2(C)CN(C)C2)cc1 (stereo partly shown) [Example 70],434
6,Cc1nc(C(C)(O)CCc2cncc([C@@](O)(c3ccc(C(C)C)cc3)C3(C)CN(C)C3)c2)cs1 (stereo partly shown) [Example 71],147
7,CC(C)c1ccc([C@](O)(c2cncc(CCC(C)(O)c3ncccn3)c2)C2(C)CN(C)C2)cc1 (stereo partly shown) [Example 73],112
8,Cc1cc(C(C)(O)CCc2cncc([C@@](O)(c3ccc(C(C)C)cc3)C3(C)CN(C)C3)c2)nn1C (stereo partly shown) [Example 74],154
9,Cc1cc(C(C)(O)CCc2cncc(C(O)(c3ccc(C(C)C)cc3)C3(C)CN(C)C3)c2)ncn1 (stereo not shown) [Example 75],184
10,Cc1cc(C(O)CCc2cncc([C@@](O)(c3ccc(C(C)C)cc3)C3(C)CN(C)C3)c2)nn1C (stereo partly shown) [Example 76],627
11,"CN1CC(C)([C@](O)(c2ccc(C3CC3)cc2)c2cncc(-c3nc(C4CCOCC4)no3)c2)C1 [Example 82, (R)-(4-Cyclopropyl-phenyl)-(1,3-dimethyl-azetidin-3-yl)-{5-[3-(tetrahydro-pyran-4-yl)-[1,2,4]oxadiazol-5-yl]-pyridin-3-yl}-methanol]",185
12,COCC(C)(C)c1noc(-c2cncc([C@@](O)(c3ccc(C4CC4)cc3)C3(C)CN(C)C3)c2)n1 [Example 83],128
13,CC(C)c1ccc([C@](O)(c2cncc(-c3nc(CN4CCOCC4)no3)c2)C2(C)CN(C)C2)cc1 [Example 89],231
14,CC1CN(Cc2noc(-c3cncc([C@@](O)(c4ccc(C(C)C)cc4)C4(C)CN(C)C4)c3)n2)CC(C)O1 (stereo partly shown) [Example 90],163
15,"COC1(c2noc(-c3cncc([C@@](O)(c4ccc(C5CC5)cc4)C4(C)CN(C)C4)c3)n2)CCOCC1 [Example 95, (R)-(4-Cyclopropyl-phenyl)-(1,3-dimethyl-azetidin-3-yl)-{5-[3-(4-methoxy-tetrahydro-pyran-4-yl)-[1,2,4]oxadiazol-5-yl]-pyridin-3-yl}-methanol]",196
16,CN1CC(C)([C@](O)(c2ccc(C3CC3)cc2)c2cncc(-c3nc(C45CC(CO)(C4)C5)no3)c2)C1 [Example 96],130
17,CC(C)c1ccc([C@](O)(c2cncc(-c3nc(C(C)(C)O)no3)c2)C2(C)CN(C)C2)cc1 [Example 99],111
18,"CC(C)c1ccc([C@](O)(c2cncc(-c3noc(CS(C)(=O)=O)n3)c2)C2(C)CN(C)C2)cc1 [Example 103, (R)-(1,3-Dimethyl-azetidin-3-yl)-(4-isopropyl-phenyl)-[5-(5-methanesulfonylmethyl-[1,2,4]oxadiazol-3-yl)-pyridin-3-yl]-methanol]",110

# Compounds with a lower IC50, results first:
row,IC50 [nM],SMILES
1,7.1,CC(C)c1ccc([C@](O)(c2cncc(CCC(O)c3ccccc3)c2)C2(C)CN(C)C2)cc1 (stereo partly shown) [Example 59]
2,9.06,CC(C)c1ccc(C(O)(c2cncc(CCC(C)(O)c3ccccc3)c2)C2(C)CN(C)C2)cc1 (stereo not shown) [Example 60]
3,19.4,CC(C)c1ccc([C@](O)(c2cncc(CCC(O)C(C)C)c2)C2(C)CN(C)C2)cc1 (stereo partly shown) [Example 61]
4,44.7,CC(C)c1ccc([C@](O)(c2cncc(CCC3CCOCC3)c2)C2(C)CN(C)C2)cc1 [Example 65]
5,11.8,CC(C)c1ccc([C@](O)(c2cncc(CCC(C)(O)c3cccc(F)c3)c2)C2(C)CN(C)C2)cc1 (stereo partly shown) [Example 67]
6,17.9,COc1ccc(C(C)(O)CCc2cncc([C@@](O)(c3ccc(C(C)C)cc3)C3(C)CN(C)C3)c2)cc1 (stereo partly shown) [Example 68]
7,16.1,COc1ccccc1C(C)(O)CCc1cncc([C@@](O)(c2ccc(C(C)C)cc2)C2(C)CN(C)C2)c1 (stereo partly shown) [Example 69]
8,15,COc1cccc(C(C)(O)CCc2cncc([C@@](O)(c3ccc(C(C)C)cc3)C3(C)CN(C)C3)c2)n1 (stereo partly shown) [Example 72]
9,52.1,CC(C)c1ccc([C@](O)(c2cncc(CCC3(O)CCCc4cccnc43)c2)C2(C)CN(C)C2)cc1 (stereo partly shown) [Example 77]
10,80.6,CC(C)c1ccc([C@](O)(c2cncc(CCC3(O)CCc4cccnc43)c2)C2(C)CN(C)C2)cc1 (stereo partly shown) [Example 78]
11,30,CCC(O)(CCc1cncc([C@@](O)(c2ccc(C(C)C)cc2)C2(C)CN(C)C2)c1)c1ccccn1 (stereo partly shown) [Example 79]
12,10.5,CCC(O)(CCc1cncc(C(O)(c2ccc(C(C)C)cc2)C2(C)CN(C)C2)c1)c1cccc(OC)n1 (stereo not shown) [Example 80]
13,19.1,CC(C)c1ccc([C@](O)(c2cncc(CCc3cc4ccccc4[nH]3)c2)C2(C)CN(C)C2)cc1 [Example 81]
14,52.8,CN1CC(C)([C@](O)(c2ccc(C3CC3)cc2)c2cncc(-c3nc(COC4CCC4)no3)c2)C1 [Example 84]
15,89.9,CCCc1ccc([C@](O)(c2cncc(-c3nc(COC4CCOCC4)no3)c2)C2(C)CN(C)C2)cc1 [Example 85]
16,75.3,CCCc1ccc([C@](O)(c2cncc(-c3nc(C4CCOCC4)no3)c2)C2(C)CN(C)C2)cc1 [Example 86]
17,61.5,CCCc1ccc([C@](O)(c2cncc(-c3nc(COC4CCC4)no3)c2)C2(C)CN(C)C2)cc1 [Example 87]
18,98.4,CC(C)c1ccc([C@](O)(c2cncc(-c3nc(C4CCOCC4)no3)c2)C2(C)CN(C)C2)cc1 [Example 88]
19,46.2,CC(C)c1ccc([C@](O)(c2cncc(-c3nc(C4(C)CCOCC4)no3)c2)C2(C)CN(C)C2)cc1 [Example 91]
20,81.5,CC(C)c1ccc([C@](O)(c2cncc(-c3nc([C@@H]4C[C@H]5CC[C@@H]4O5)no3)c2)C2(C)CN(C)C2)cc1 [Example 92]
21,86.8,CC(C)c1ccc([C@](O)(c2cncc(-c3nc(COC4CCOCC4)no3)c2)C2(C)CN(C)C2)cc1 [Example 93]
22,71.1,"CC(C)c1ccc([C@](O)(c2cncc(-c3nc(N4CCOCC4)no3)c2)C2(C)CN(C)C2)cc1 [Example 94, (R)-(1,3-Dimethyl-azetidin-3-yl)-(4-isopropyl-phenyl)-[5-(3-morpholin-4-yl-[1,2,4]oxadiazol-5-yl)-pyridin-3-yl]-methanol]"
23,71.3,CC(C)c1ccc([C@](O)(c2cncc(-c3nc(C45CC(CO)(C4)C5)no3)c2)C2(C)CN(C)C2)cc1 [Example 97]
24,60,CC(C)c1ccc([C@](O)(c2cncc(-c3nc(C(C)(C)CO)no3)c2)C2(C)CN(C)C2)cc1 [Example 98]
25,69.9,COC(C)(C)c1noc(-c2cncc([C@@](O)(c3ccc(C(C)C)cc3)C3(C)CN(C)C3)c2)n1 [Example 100]
26,41.8,COC1(c2noc(-c3cncc([C@@](O)(c4ccc(C(C)C)cc4)C4(C)CN(C)C4)c3)n2)CCC1 [Example 101]
27,103,CC(C)c1ccc([C@](O)(c2cncc(-c3nc(CC(C)(C)O)no3)c2)C2(C)CN(C)C2)cc1 [Example 102]
28,42.2,COCCc1nc(-c2cncc([C@@](O)(c3ccc(C(C)C)cc3)C3(C)CN(C)C3)c2)no1 [Example 104]
